# In US20250268958A1, “COMMENSAL BACTERIA PROMOTE ENDOCRINE-RESISTANCE IN PROSTATE CANCER VIA ANDROGEN BIOSYNTHESIS” (FONDAZIONE PER L'ISTITUTO ONCOLOGICO DI RICERCA (IOR), priority 2021, published 2025):
# How the values were obtained:
# [1] = system: Ruminococcaceae family; test: Gut microbiota composition in TRAMP-C1 mice under bipolar androgen therapy; assay type: in vivo, mouse; settings: high dose of testosterone vs vehicle
# Description: FIG. 7—Pten^pc−/− and LNCaP castrated mice harbor a peculiar gut microbiota. […] (E) qPCR showing the abundance of R. gnavus and B. acidifaciens in feces of LNCaP mice that were either sham-operated (n=4), CTX (n=6), CTX+enzalutamide (n=6) at 85 days. TRAMP-C1 mouse models were treated with either vehicle or high dose of testosterone as per bipolar androgen therapy. (F) Tumor volume (vehicle n=5, high testosterone n=5). (G) Serum testosterone levels (vehicle n=5, high-testosterone n=5). (H) Heatmap representing differentially abundant bacteria (FDR<0.05) between mice injected with vehicle or high testosterone-dose (vehicle n=4, high-testosterone n=4). […]
# Pten^pc−/− Murine 16S rDNA sequencing analysis and bacteria qPCR. […] DNA was extracted using a GNOME DNA isolation kit (MP) following the protocol described in (J. P. Furet et al., Comparative assessment of human and farm animal faecal microbiota using real-time quantitative PCR. FEMS Microbiol Ecol 68, 351-362 (2009)). […] In short, DNA concentration and quality were evaluated using NanoDrop 2000. […] PCR products were visualized on an agarose gel then quantified by qPCR using the KAPA Library Quantification Kit (KAPA Biosystems, KK4824). […] The pooled library was purified using the Agencourt AMPure XP kit (Beckman Coulter, A63880) and quantified with the same method prior to sequence using paired-end (read length=300 bases) on Illumina MiSeq. […]
# [2] = system: TRAMP-C1 cells; test: TRAMP-C1 allograft tumor model, castrated (CTX) or sham-operated mice; settings: high dose of testosterone vs vehicle
# Description: C57BL6/N mice were challenged s.c. with 2.5×10^6 TRAMP-C1 cells. When tumors became palpable, mice were either castrated (CTX) or sham-operated (sham). After surgery, mice were either administered normal drinking water or antibiotic cocktail (ABX: neomycin 1 g/L, ampicillin 1 g/L, vancomycin 0.5 g/L and metronidazole 2 mg/mouse every other day). (A) Tumor volume (Sham n=14, Sham ABX n=4, CTX n=20, CTX ABX n=10) and (B) survival curve. […] Statistical analysis was performed with: (A), (F), (G) two-way ANOVA and Sidak's multiple comparison test; (B), (H), (1) Mantel Cox test; (C), (E), (K) unpaired two-sided Student's t-test. NS, not significant; *P<0.05; **P<0.01; ***P<0.001; ****P<0.0001.
# Mice. […] 4 weeks old male C57BL6/N and NOD/SCID mice were purchased from Charles River (Calco, Italy) and acclimatized for four weeks before experimentation.
# [3] = system: Ruminococcaceae family; test: Gut microbiota of mCRPC patients stratified by ADT regimen (whole genome metagenome); assay type: in vivo, human; settings: Abiraterone vs Enzalutamide
# Description: FIG. 16—Different ADT regimens alter gut microbiota composition. (A) Pie chart representing the number of CRPC patients receiving Enzalutamide, Abiraterone or other treatment (Apalutamide, Docetaxel, Cabazitaxel or no active treatment) at the moment of the rectal swab. […] (C) Patients treated with enzalutamide (n=14) and apalutamide (n=1) were stratified according to the circulating testosterone level (≤10 ng/dL or >10 ng/dL). Pie charts show, within each group, the fraction of patients having Ruminococcus DSM_10044 in their gut microbiota.
# Collection of patient feces. Patients with hormone-sensitive (HSPC) and metastatic CRPC consented to the analysis of their rectal swabs. […]
# Whole genome metagenome analysis of patient feces. […] DNA was analyzed by Qubit (Invitrogen, Thermo Fisher Scientific, Waltham, USA) and integrity was checked by agarose gel electrophoresis.
# Illumina TruSeq DNA libraries were prepared using the TruSeq nano DNA Library preparation kit (Illumina, San Diego, USA) according to the manufacturer's instructions. […] The final libraries were quantified using a Quant-iT™ PicoGreen™ ds DNA Assay Kit (Thermo Fisher Scientific, Waltham, USA) and equimolarly pooled prior to sequencing. […] Quality of the reads in fastq format was checked with the software FastQC (version 0.11.8). […]
SMILES,abundance of Ruminococcaceae family [1],tumor volume [2],expansion of Ruminococcaceae family in gut microbiota [3]
"C[C@]12CC[C@H]3[C@@H](CCC4=CC(=O)CC[C@@]43C)[C@@H]1CC[C@@H]2O [bipolar androgen therapy, Testosterone]",decreased the abundance of Ruminococcaceae family,promoted tumor inhibition,
CNC(=O)c1ccc(N2C(=S)N(c3ccc(C#N)c(C(F)(F)F)c3)C(=O)C2(C)C)cc1F [Enzalutamide],,,presented an expansion of Ruminococcaceae family
